Data on two compounds can be found in patent US20110171309A1, “Compositions and Methods for Composite Nanoparticle Hydrogels” (Board of Regents, The University of Texas System, priority 2008, published 2011).

Data set [1] concerns human aortic smooth muscle cells. Put plainly: Cytotoxic effects of photoinitiator concentrations, MTS assay. Format: cell-based. The settings on record: no UV, 3 days. The procedure:
(§1) Human aortic smooth muscle cells (HASMC) were cultured in complete medium consisting of Dulbecco's modified Eagle medium supplemented with 10% fetal bovine serum and 1% penicillin-streptomycin (Invitrogen, Carlsbad, Calif.). Upon 80-90% confluency, the cells were passaged or used for experiments. For all experiments, the cells were seeded in 24-well plates (Corning, Corning, N.Y.) at a density of 7000 cells per well. Following seeding, the cells were incubated at 37 °C and 5% CO2 in a humid environment for 2 days to allow cellular attachment and growth. After 2 days, the HASMCs were exposed to varying concentrations of the photoinitiator Irgacure 2959 (Ciba Specialty Chemicals), and/or UV exposure.
To evaluate the cytotoxic effects of photoinitiator concentrations on HASMCs, the cells were seeded and cultured as described earlier. Irgacure 2959 was directly dissolved in complete media to obtain final concentrations of 0.01%, 0.02%, 0.04%, 0.08%, and 0.16% (w/v). These photoinitiator concentrations were well within the range required for photopolymerization in a short period of time. […] These solutions were then sterilized using 0.2-μm syringe filters before they were added to the HASMCs. The control wells consisted of cells incubated with photoinitiator-free complete media. After the addition of the photoinitiator, the cells were incubated for 3 days, and then cell survival was determined using MTS assays. The cell survival for the controls was determined to be 1±0.09. […] Upon increasing the photoinitiator concentrations above 0.02% (w/v), a statistically significant decrease was noticed in the relative cell survival.
(§2) After the experiments, the cell survival was quantified using the MTS assay (CellTiter 961 Aqueous One Solution Cell Proliferation Assay, Promega) following the manufacturer's instructions. The cells were incubated with the MTS reagent for 4 h, after which 200 μL of the solution was transferred to 96-well plates, and absorbance was read at 490 nm using a microplate reader (VMax, Molecular Devices). Relative cell survival was obtained by dividing the absorbance reading of a cell sample by the mean absorbance value of the control.
In general terms: Tetrazolium assays rely on reduction of a dye to a coloured formazan, in cell work by metabolically active cells.

Data set [2] shares this test system. Kind of data set: Combined effects of photoinitiator and UV exposure on cell survival, MTS assay. The data set is classed as cell-based. Particulars: 3 days. As to the method:
as §1
The cellular damage due to the combined effects of photoinitiator and UV exposure was evaluated. Briefly, the HASMCs were seeded onto 24-well plates and allowed to grow for 2 days. Irgacure 2959 solutions with final concentrations of 0.01%, 0.015%, 0.04%, and 0.08% (w/v) in complete media were prepared. After adding these solutions, cells were incubated for 30 min to allow for the mixing of the photoinitiator. The well plates were then exposed to 1, 3, and 5 min of UV light. Wells containing cells not exposed to either UV light or photoinitiator solution served as controls for this experiment. Cell samples were incubated for 3 days before analyzing the cell survival. […] The cell survival for the controls was determined to be 1±0.09.
as §2

The test system of the next data set is NIH/3T3 fibroblast cells. The settings on record: concentrations 0.05% (w/w); cited from earlier work.
Data set [3] deals with human aortic smooth muscle cells. Put plainly: Ascorbic acid scavenging of free radicals to increase cell survival, MTS assay. Format: cell-based. The settings on record: 50 mg/L ascorbic acid, 0.15% (w/v) Irgacure 2959, 5 min UV, 3 days. The procedure:
The efficiency of the antioxidant, ascorbic acid, was evaluated in scavenging the free radicals in an effort to increase cell survival. HASMCs were exposed to 0.15% (w/v) solution of Irgacure 2959 in complete media supplemented with varying concentrations of ascorbic acid (0-200 mg/L). After incubating for 30 min, the cells were exposed to 5 min of UV light, and cell survival was quantified after 3 days. To evaluate the effect of added antioxidants on the gelation time, the gelation times (i.e., the time required for the materials to form a gel) were determined using three methods on 96-well plates. […] Then, the solution was monitored at that this specific wavelength AQ3 (610 nm) over a time course. The result was graphed as function of time, and the gelation time was defined as the time that had the highest changes in the absorbance intensities.
as §2

In the case of `CC(C)(O)C(=O)c1ccc(OCCO)cc1` [Irgacure 2959, 2-hydroxy-1-[4-(2-hydroxyethoxy)phenyl]-2-methyl-1-propanone], the relative cell survival in data set [1] (0.01% (w/v)) is recorded as 1.03±0.10; in data set [1] (0.02% (w/v)), 0.85±0.09; in data set [1] (0.16% (w/v)), 0.25±0.01; in data set [2] (0.01% (w/v), 1, 3 and 5 min UV) it was “did not show any statistically significant decrease in relative cell survival”; in data set [2] (0.015% (w/v), 1, 3 and 5 min UV), “did not show any statistically significant decrease in relative cell survival”; in data set [2] (0.04% (w/v), 1 min UV), 0.76±0.05. Further, the relative cell survival in data set [2] (0.04% (w/v), 3 min UV) is 0.74±0.04; in data set [2] (0.04% (w/v), 5 min UV), 0.67±0.05. Besides, the cell survival entry in data set [1] (below 0.02% (w/v)) was “no significant decrease in cell survival”. For the same compound, the fibroblast survival entry in the data set on NIH/3T3 fibroblast cells is given as “does not affect fibroblast survival”.

Turning to `O=C1O[C@H]([C@@H](O)CO)C(O)=C1O` [ascorbic acid], in data set [3], the “relative cell survival compared to samples without ascorbic acid” value is “significantly improve the relative cell survival rates”.
